Data from US20240316046A1, “ERK1/2 INHIBITOR COMBINATION THERAPY” (Asana Biosciences, LLC, priority 2021, published 2024).

What was measured:
[1] = tested on: encorafenib refractory-BRAF^V600E RKO and WiDr CDX models; test: In-vivo assay, tumor growth in xenograft (CDX) models; design: species or system Female Balb/c nude mice; conditions: compound 1 combined with encorafenib, oral, FIG. 2A, 2B
Description: The vehicle/control article, 0.5% Methyl Cellulose & 0.1% Tween 80 or 100 mM acetic acid in deionized water with pH adjustment to 4.8-5.0, was prepared and stored under ambient conditions throughout the study period.
The test article compound 1 was freshly prepared in vehicle of 0.5% Methyl Cellulose & 0.1% Tween 80 weekly and stored under ambient conditions. The combination agent, encorafenib, was freshly prepared in vehicle of 0.5% CMC and 0.5% Tween 80 weekly and stored at 2-8° C.
Female Balb/c nude mice were purchased from the Beijing Vital River Laboratory Animal Technology Co., Ltd. Mice were hosted at special pathogen-free (SPF) environment of vivarium facility and acclimated to their new environment for at least 3 days prior to initiation of any experiments. Mice were between 6-8 weeks of age at the time of implantation.
RKO is a human CRC tumor cell line that harbors a BRAF^V600E mutation. The RKO cell line was purchased from the American Type Culture Collection (ATCC® CRL-2577™). RKO cells were cultured in medium containing EMEM plus 10% Fetal Bovine Serum (FBS) supplemented with non-essential amino acids at 37° C. in an atmosphere of 5% CO2 in air. RKO cells in 200 μL cell suspensions containing 2×10^6 cells mixed with 50% Matrigel were implanted into mice subcutaneously. […]

[2] = tested on: RAS/MAPK pathway (P-RSK, P-ERK) in BRAF V600E mutant CRC cell lines RKO and HT-29; test: Western blot of phosphorylation of RSK (P-RSK) and ERK (P-ERK), encorafenib in combination with MEK and ERK inhibitors; type: cell-based, human; conditions: plus BRAF inhibitor encorafenib; incubation up to 72 hours; Compound 1 at one-tenth the concentration used for the MEK and other ERK inhibitors; FIG. 3A-3D
Excerpt: Treatment of two BRAF V600E mutant CRC cell lines, RKO and HT-29, with encorafenib in combination with the MEK inhibitor binimetinib, the ERK inhibitor Compound 1, the ERK inhibitor LY3214996, and the ERK inhibitor ravoxertinib. The Western blot gels depict phosphorylation of RSK (P-RSK) and ERK (P-ERK). Higher levels of phosphorylation are depicted by higher (i.e., darker) band intensity. Total GAPDH protein (GAPDH) serves as a loading control. ERK signaling activity is represented by the phosphorylation state of RSK (P-RSK), which is a downstream target of ERK. The column values indicate the duration of compound incubation of up to 72 hours. FIG. 3A-FIG. 3D.

[3] = tested on: cell lines harboring a BRAF^V600E mutation (RKO, HT-29, WiDr, MDST8, LIM2405 cells); test: In-vitro 3D cell viability assay (CellTiter-Glo 3D), dilution matrix of compound 1 versus encorafenib, BLISS model; type: cell-based, human; conditions: compound 1 combined with encorafenib, 5 days post-treatment, FIG. 1A-1E
Description: Cells were plated at a density of 1,000 (RKO, HT-29, WiDr, MDST8) or 5,000 (LIM2405) cells per well in a 96-well plate (Corning #3903). Cells were allowed to adhere overnight, and compound was added in a matrix format using a HP Tecan D300e digital dispenser (Switzerland). Compound 1 was added in a 1:3 dilution series (8-point dose response) from bottom to top of plate (rows B-H) and encorafenib was added in a 1:3 dilution series ([…] dose response) from right to left (columns 2-11). Final DMSO concentration was normalized across the plate. Cell viability was assessed 5-days post-treatment using Promega CellTiter-Glo 3D Cell Viability Assay reagent (#G9683) according to manufacturer's protocol.
RKO cells (FIG. 1A), HT-29 cells (FIG. 1B), WiDr cells (FIG. 1C), MDST8 cells (FIG. 1D), and LIM2405 (FIG. 1E) were treated with a dilution matrix of compound 1 versus encorafenib in 3D cell viability assays. Cell viability, as expressed as a percentage of viable cells relative to vehicle treated control, is shown in the matrix.

SMILES | combination benefit in vivo (tumor growth curves) [1] | RAS/MAPK pathway feedback reactivation (P-RSK, P-ERK) [2] | combination benefit in vitro (cell viability, BLISS model) [3]
Cc1cnc(NC2CCOCC2)nc1-n1cnc(C(=O)N[C@H](CN)c2cc(F)cc(Cl)c2)c1 [Compound 1, (S)-N-(2-amino-1-(3-chloro-5-fluorophenyl)ethyl)-1-(5-methyl-2-((tetrahydro-2H-pyran-4-yl)amino)pyrimidin-4-yl)-1H-imidazole-4-carboxamide] | combination benefit | blocked the RAS/MAPK pathway feedback reactivation | combination benefit
COC(=O)N[C@@H](C)CNc1nccc(-c2cn(C(C)C)nc2-c2cc(Cl)cc(NS(C)(=O)=O)c2F)n1 [encorafenib, Encorafenib, reference compound] | combination benefit | – | combination benefit
